Common to all, as to assay type: functional, cell-based
In assay [1] the test system is MCF7. The assay can be described thus: Cytotoxicity against human MCF7 cells assessed as reduction in cell viability measured after 48 hrs by MTT assay. As to conditions: MCF7, 48 h.
Assay [2] has as its system A2780. Description: Cytotoxicity against human A2780 cells assessed as reduction in cell viability measured after 48 hrs by MTT assay. Conditions: A2780, 48 h.
Assay [3] concerns PC-3. Description: Cytotoxicity against human PC-3 cells assessed as reduction in cell viability measured after 48 hrs by MTT assay. As to conditions: PC-3, 48 h. Background: Tetrazolium dyes change colour on reduction, which living cells bring about.

Some results are limits rather than exact numbers.

Among the data in ChEMBL document CHEMBL4825727, “Cytotoxic oxidovanadium(IV) complexes of tridentate halogen-substituted Schiff bases: First dinuclear V(IV) complexes with O → VIV = O → VIV = O core” (Bioorg Med Chem Lett, 2021) are IC50 values, retold here.

As for `Oc1ccc(Cl)cc1/C=N/CCc1ccccn1`, the 50% inhibitory concentration (IC50) – broadly, the point on the concentration scale where inhibition reaches its midpoint – in assay [1] was found to be 45 µM; in assay [2], 51 µM; in assay [3], 110 µM.
On the same counts, the results for `Oc1ccc(Br)cc1/C=N/CCc1ccccn1` are 42 µM, 50 µM and 108 µM.
On the same counts, the results for `Oc1c(Br)cc(Cl)cc1/C=N/CCc1ccccn1` are 48 µM, 48 µM and 83 µM.
On the same counts, the results for `Oc1ccccc1/C=N/CCc1ccccn1` are above 100 µM, above 100 µM and above 100 µM.
